Measurements: PubChem BioAssay AID256 (DTP/NCI, 2004)
Values joined by “and” are separate entries in the source; they are usually repeats but may differ in a detail not shown here. Equal entries are not always repeated. Toxic doses and inconclusive results are not listed.

System: CD2F1 mice, L1210 leukemia ip, survival T/C
Assay: NCI In Vivo Anticancer Drug Screen. Data for tumor model L1210 Leukemia (intraperitoneal) in CD2F1 (CDF1) mice
Settings: endpoint: mean survival time, higher = longer survival
Method in brief: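 Activity against a transplanted murine tumor was judged by comparing the compound group with a vehicle group. The outcome in the treated animals was divided by that in the controls.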

S=c1nc[nH]c2nc[nH]c12
T/C (dose: 8.0 mg/kg/injection, schedule: Q03HX024 (ip), vehicle: alkali diluted with water): 155 % of control
T/C (dose: 9.38 mg/kg/injection, schedule: Q01DX009 (ip), vehicle: alkali diluted with saline): 119 % of control
T/C (dose: 10.0 mg/kg/injection, schedule: Q01DX005 (ip), vehicle: alkali diluted with saline): 113 % of control
T/C (dose: 10.0 mg/kg/injection, schedule: Q01DX005 (ip), vehicle: alkali diluted with water): 98 % of control
T/C (dose: 16.0 mg/kg/injection, schedule: Q03HX024 (ip), vehicle: alkali diluted with water): 160 % of control
T/C (dose: 18.8 mg/kg/injection, schedule: Q01DX009 (ip), vehicle: alkali diluted with saline): 113 % of control
T/C (dose: 19.4 mg/kg/injection, schedule: Q04DX003 (ip), vehicle: alkali diluted with saline): 101 % of control
T/C (dose: 20.0 mg/kg/injection, schedule: Q01DX007 (ip), vehicle: saline): 116 % of control
T/C (dose: 20.0 mg/kg/injection, schedule: Q01DX009 (ip), vehicle: alkali diluted with water): 114 % of control
T/C (dose: 20.0 mg/kg/injection, schedule: Q01DX009 (ip), vehicle: other): 121 % of control
T/C (dose: 20.0 mg/kg/injection, schedule: Q01DX009 (ip), vehicle: saline): 120 % of control
T/C (dose: 20.0 mg/kg/injection, schedule: Q04DX002 (ip), vehicle: saline): 120 % of control
T/C (dose: 28.13 mg/kg/injection, schedule: Q04DX003 (ip), vehicle: alkali diluted with saline): 95 % of control
T/C (dose: 30.0 mg/kg/injection, schedule: Q## X006 (ip), vehicle: saline): 101 % of control
T/C (dose: 37.5 mg/kg/injection, schedule: Q01DX009 (ip), vehicle: alkali diluted with saline): 122 % of control
T/C (dose: 40.0 mg/kg/injection, schedule: Q01DX005 (ip), vehicle: saline): 150 % of control
T/C (dose: 40.0 mg/kg/injection, schedule: Q01DX005 (ip), vehicle: sodium bicarbonate): 116 % of control
T/C (dose: 40.0 mg/kg/injection, schedule: Q01DX009 (ip), vehicle: other): 166 % of control and 167 % of control
T/C (dose: 40.0 mg/kg/injection, schedule: Q03DX003 (ip), vehicle: saline): 113 % of control
T/C (dose: 40.0 mg/kg/injection, schedule: Q04DX003 (ip), vehicle: saline): 116 % of control
T/C (dose: 60.0 mg/kg/injection, schedule: Q## X009 (ip), vehicle: saline): 122 % of control
T/C (dose: 66.0 mg/kg/injection, schedule: Q04DX003 (ip), vehicle: saline): 163 % of control
T/C (dose: 75.0 mg/kg/injection, schedule: Q01DX009 (ip), vehicle: alkali diluted with saline): 156 % of control and 170 % of control
T/C (dose: 80.0 mg/kg/injection, schedule: Q01DX001 (ip), vehicle: alkali diluted with water): 120 % of control
T/C (dose: 80.0 mg/kg/injection, schedule: Q01DX005 (ip), vehicle: saline with Tween-80): 168 % of control
T/C (dose: 80.0 mg/kg/injection, schedule: Q01DX005 (ip), vehicle: saline): 170 % of control and 172 % of control
T/C (dose: 80.0 mg/kg/injection, schedule: Q01DX005 (ip), vehicle: sodium bicarbonate): 157 % of control
T/C (dose: 80.0 mg/kg/injection, schedule: Q01DX007 (ip), vehicle: saline): 158 % of control
T/C (dose: 80.0 mg/kg/injection, schedule: Q01DX009 (ip), vehicle: alkali diluted with saline): 150 % of control
T/C (dose: 80.0 mg/kg/injection, schedule: Q01DX009 (ip), vehicle: alkali diluted with water): 150 % of control and 158 % of control
T/C (dose: 80.0 mg/kg/injection, schedule: Q01DX009 (ip), vehicle: other): 156 % of control
T/C (dose: 80.0 mg/kg/injection, schedule: Q01DX009 (ip), vehicle: saline): 156 % of control
T/C (dose: 80.0 mg/kg/injection, schedule: Q04DX002 (ip), vehicle: saline): 150 % of control
T/C (dose: 90.0 mg/kg/injection, schedule: Q## X002 (ip), vehicle: saline): 153 % of control
T/C (dose: 125.0 mg/kg/injection, schedule: Q01DX001 (ip), vehicle: alkali diluted with saline): 120 % of control
T/C (dose: 150.0 mg/kg/injection, schedule: Q01DX009 (ip), vehicle: alkali diluted with saline): 113 % of control and 95 % of control
T/C (dose: 150.0 mg/kg/injection, schedule: Q04DX003 (ip), vehicle: alkali diluted with saline): 155 % of control
T/C (dose: 160.0 mg/kg/injection, schedule: Q01DX001 (ip), vehicle: alkali diluted with water): 152 % of control
T/C (dose: 160.0 mg/kg/injection, schedule: Q01DX005 (ip), vehicle: saline with Tween-80): 175 % of control
T/C (dose: 160.0 mg/kg/injection, schedule: Q01DX005 (ip), vehicle: saline): 171 % of control
T/C (dose: 160.0 mg/kg/injection, schedule: Q01DX009 (ip), vehicle: alkali diluted with saline): 101 % of control
T/C (dose: 160.0 mg/kg/injection, schedule: Q01DX009 (ip), vehicle: alkali diluted with water): 114 % of control and 88 % of control
T/C (dose: 160.0 mg/kg/injection, schedule: Q01DX009 (ip), vehicle: other): 87 % of control
T/C (dose: 165.0 mg/kg/injection, schedule: Q01DX001 (ip), vehicle: alkali diluted with saline): 122 % of control
